US5837548A, “Treatment of inflammation by inhibition of lipid body formation” (Beth Israel Hospital, priority 1995, dated 1998)

How the values were obtained:
Format in all cases: cell-based
human neutrophils = experiment: cis-unsaturated fatty acid-induced lipid body formation in human neutrophils (osmium staining, light microscopy enumeration); conditions: human neutrophils
Procedure: Neutrophils were purified from fresh human blood obtained by venipuncture from healthy adult volunteers and collected into acidified citrate. After addition of 6% dextran 70 (McGaw, Irvine, Calif.), RBCs were allowed to sediment for 1 hour at room temperature. The leukocyte-rich supernatant was overlaid onto an equal volume of Ficoll-Paque gradient (Piscataway, N.J.), and centrifuged at 400×g for 20 min. […] Residual RBCs were lysed with hypotonic saline.
Human leukocytes (10^6 cells/mL) were incubated with varying concentrations of arachidonic acid (AA), oleic acid (OA) or vehicle at 37° C. in a 5% CO2 /95% O2 atmosphere, and after 1 hour leukocytes (10^5 cells per slide) were cytocentrifuged (550 rpm, 5 min) onto glass slides. During inhibitory studies, neutrophils were pretreated for 1 hour with varying concentrations of enzyme inhibitors, protein synthesis inhibitors, or vehicle as indicated. When PKC inhibitors were used, the pre-incubation time was reduced to 30 minutes to avoid toxic effects to the cells. […] Stock solutions for A23187, D609, U-73122, and indomethacin were prepared in DMSO and stored at -20° C. Aliquots were diluted in Ca^++ /Mg^++ fee HBSS to the indicated concentration immediately prior to use. […] The morphology of fixed cells was observed, and lipid bodies were enumerated with phase contrast microscopy and a 100× objective lens in 50 consecutively scanned leukocytes.
Results were expressed as mean±SEM and were analyzed statistically by means of the analysis of variance followed by the Newman-Keuls-Student test with the level of significance set at p<0.05. Correlation coefficients were determined by linear regression, and correlation analysis was performed by Fisher's r to z transformation with the level of significance set at p<0.05.
^1 Neutrophils (10^6 /ml) were pretreated with protein kinase C
(actinomycin D, cycloheximide) for 30 min or with phospholipase C
inhibitors (D609, U73122) for 1 h. The cells were then stimulated with
vehicle, arachidonic acid (15 μM), or oleic acid (10 μM), for 1 h.
Results are mean ± SEM from fifty consecutively counted neutrophils.
Statistically significant differences between the agonist alone and the
inhibitor are represented by an asterisk(*). Percent inhibition has been
calculated after subtracting out the basal number of lipid bodies/PMN
present prior to stimulation.
^1 Neutrophils (10^6 /ml) were pretreated with the NSAID or
vehicle for 1 h then stimulated with vehicle, arachidonic acid, or oleic
± SEM from fifty consecutively counted neutrophils. Statistically
significant differences between the agonist alone and the NSAID are
represented by an asterisk (*). Percent inhibition has been calculated
after subtracting out the basal number of lipid bodies/PMN present prior

[1] = system: human neutrophils (PGE2 production); experiment: PGE2 production by human neutrophils (priming, A23187 stimulation, ELISA)
Procedure: FIG. 1B is a graph showing the effect of arachidonic acid (AA) and oleic acid (OA) on lipid body induction (black) and priming for enhanced prostaglandin E2 (PGE2) production (white) by human neutrophils. Neutrophils (10^6 /mL) were stimulated for one hour with arachidonic acid (3.7, 7.5, 15 μM) or oleic acid (2.5, 5, 10 μM). Lipid bodies were enumerated using light microscopy following osmium staining. The concentration of PGE2 in the supernatant was measured by ELISA after incubation with A23187 (0.5 μM) for 15 minutes at 37° C. Data are expressed as mean from 2-3 independent assays performed in duplicate.
(§1) After the incubation time, a sample was taken for lipid body enumeration and the cells were washed in Ca^++ /Mg^++ free HBSS. Leukocytes were resuspended in 1 mL of HBSS containing Ca^++ /Mg^++ and then stimulated with A23187 (0.5 μM) for 15 min. The reaction was stopped on ice, and the samples were centrifuged at 1500 rpm for 10 min at 4° C. The concentrations of PGE2, LTB4, and LTC4 in the supernatants were assayed by ELISA according to the manufacturer's instructions (Cayman, Ann Arbor, Mich.).

[2] = system: human neutrophils (LTB4 production); experiment: LTB4 production by human neutrophils (priming, A23187 stimulation, ELISA)
Procedure: (§2) FIG. 1A is a graph illustrating the effect of arachidonic acid (AA) and oleic acid (OA) on induction of lipid body formation (black) and priming effects (white) for enhanced leukotriene B4 (LTB4) by human neutrophils. Neutrophils (10^6 /mL) were stimulated for one hour with arachidonic acid (3.7, 7.5, 15 μM) or oleic acid (2.5, 5, 10 μM). Lipid bodies were enumerated using light microscopy following osmium staining. The concentration of LTB4 in the supernatant was measured by ELISA after incubation with A23187 (0.5 μM) for 15 minutes at 37° C. Data are expressed as mean from 2-3 independent assays performed in duplicate.
(§3) FIG. 5A is a graph showing that aspirin inhibits cis-unsaturated fatty acid-induced priming for enhanced leukotriene B4 (LTB4) production in human neutrophils. Striped and open columns represent vehicle treated cells and aspirin treated cells, respectively. Cells (10^6 /mL) were pretreated with aspirin (10 μg/mL) or vehicle for one hour and then stimulated with OA (10 μM) or vehicle for one hour. The concentration of LTB4 in the supernatant was measured by ELISA after incubation with A23187 (0.5 μM) for 15 minutes at 37° C. Data are expressed as mean from 2-4 independent assays performed in duplicate. The statistically significant difference between the vehicle alone and the agonist is represented by a cross. Statistically significant differences due to pretreatment with aspirin are indicated by an asterisk.
as §1

[3] = system: human eosinophils (LTC4 production); experiment: LTC4 production by human eosinophils (priming, A23187 stimulation, ELISA)
Procedure: as §2, with “2A” for “1A”, “C4 (LTC4)” for “B4 (LTB4)”, “eosinophils. Eosinophils” for “neutrophils. Neutrophils”, “LTC4” for “LTB4”, “2” for “2-3”
as §3, with “5B” for “5A”, “C4 (LTC4)” for “B4 (LTB4)”, “eosinophils.” for “neutrophils.”, “LTC4” for “LTB4”
as §1

[4] = Homo sapiens, Neutrophil, 1 h, read-out: fold increase in production of PGE2
[5] = Homo sapiens, Neutrophil, 1 h, read-out: fold increase in production of LTB4
[6] = Homo sapiens, Eosinophil, 1 h, read-out: fold increase in production of LTC4
[7] = staurosporine 0.1-1.0 μM, aspirin 10 μg/mL, others as in Tables 1 and 2
[8] = cells not pre-stimulated with cis-unsaturated fatty acids

| Compound | increase in number of lipid bodies (human neutrophils) | fold induction at 15 µM [1, 4] | increase in production of PGE2 ([1]; neutrophils) | fold induction at 15 µM [2, 5] | increase in production of LTB4 ([2]; neutrophils) | fold induction at 15 µM [3, 6] | increase in production of LTC4 ([3]; eosinophils) | inhibition of arachidonic acid-induced lipid body formation (human neutrophils; [7]) | inhibition of oleic acid-induced lipid body formation (human neutrophils; [7]) | inhibition of PGE2 production ([1]; neutrophils, 10 μg/mL pretreatment) | inhibition of calcium ionophore-induced LTB4 production [2, 8] | inhibition of oleic acid-induced priming for enhanced LTB4 production ([2]; neutrophils, 10 μg/mL, OA 10 μM) | inhibition of calcium ionophore-induced LTC4 production [3, 8] | inhibition of oleic acid-induced priming for enhanced LTC4 production ([3]; eosinophils, 10 μg/mL, OA 10 μM) | fold induction at 10 µM [1, 4] | correlation (r) between number of lipid bodies and priming for enhanced PGE2 release ([1]; oleic acid, leukocytes, p<0.01) | fold induction at 10 µM [2, 5] | correlation (r) between number of lipid bodies and priming for enhanced LTB4 release ([2]; oleic acid, leukocytes, p<0.05) | fold induction at 10 µM [3, 6] | correlation (r) between number of lipid bodies and priming for enhanced LTC4 release ([3]; oleic acid, leukocytes, p<0.05) |
| --- | --- | --- | --- | --- | --- | --- | --- | --- | --- | --- | --- | --- | --- | --- | --- | --- | --- | --- | --- | --- |
| CCCCC/C=C\C/C=C\C/C=C\C/C=C\CCCC(=O)O [arachidonic acid] | dose-dependent increase in the number of lipid bodies | 3.5 | dose-dependent increase in production | 2.3 | dose-dependent increase in production | 1.4 | dose-dependent increase in production |  |  |  |  |  |  |  |  |  |  |  |  |  |
| CC(=O)Oc1ccccc1C(=O)O [aspirin] |  |  |  |  |  |  |  | significantly inhibited | significantly inhibited | inhibited PGE2 production | failed to inhibit | significantly inhibited | failed to inhibit | significantly inhibited |  |  |  |  |  |  |
| CCCCCCCC/C=C\CCCCCCCC(=O)O [oleic acid] | dose-dependent increase in the number of lipid bodies |  | dose-dependent increase in production |  | dose-dependent increase in production |  | dose-dependent increase in production |  |  |  |  |  |  |  | 2 | 0.99 | 2 | 0.96 | 1.7 | 0.95 |
